Results reported in PubChem BioAssay (NCI).
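The compound was tested at five concentrations on cells cultured in 96-well plates, with a 48-hour exposure period. At the GI50, growth is halved. TGI marks complete inhibition of growth.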

Tests used:
Assay in all cases: NCI tumour cell line growth inhibition, 48 h
SW-620 colon = test system: SW-620 colon
HOP-92 NSCLC = test system: HOP-92 NSCLC
A498 renal = test system: A498 renal
EKVX NSCLC = test system: EKVX NSCLC
OVCAR-5 ovarian = test system: OVCAR-5 ovarian
K-562 leukemia = test system: K-562 leukemia
NCI-H23 lung = test system: NCI-H23 lung
HOP-62 NSCLC = test system: HOP-62 NSCLC
UACC-257 melanoma = test system: UACC-257 melanoma
MCF7 breast = test system: MCF7 breast

Structure (SMILES) | TGI (SW-620 colon) [µM] | TGI (HOP-92 NSCLC) [µM] | TGI (A498 renal) [µM] | TGI (EKVX NSCLC) [µM] | TGI (OVCAR-5 ovarian) [µM] | TGI (K-562 leukemia) [µM] | TGI (NCI-H23 lung) [µM] | TGI (HOP-62 NSCLC) [µM] | TGI (UACC-257 melanoma) [µM] | GI50 (SW-620 colon) [µM] | GI50 (HOP-92 NSCLC) [µM] | GI50 (A498 renal) [µM] | GI50 (OVCAR-5 ovarian) [µM] | GI50 (UACC-257 melanoma) [µM] | GI50 (K-562 leukemia) [µM] | GI50 (NCI-H23 lung) [µM] | GI50 (HOP-62 NSCLC) [µM] | GI50 (MCF7 breast) [µM] | TGI (MCF7 breast) [µM]
Cn1c(=O)ccc2cc(C(=O)c3ccccc3)ccc21 | > 100 | > 100 | > 100 | > 100 | > 100 | > 100 | > 100 | > 100 |  |  |  |  |  |  |  |  |  |  | 
O=C1OC(=O)C2C1C1(c3ccccc3)OC2(c2ccccc2)c2c(Br)c(Br)c(Br)c(Br)c21 (configuration not stated) | > 100 | > 100 | > 100 | > 100 | > 100 | > 100 | > 100 | > 100 | > 100 |  |  |  |  |  |  |  |  |  | 
CC12CCC(C)(c3cc(O)c(O)cc31)c1cc(O)c(O)cc12 | 40.9 | 25.4 |  | 56.3 | 48.1 | 29.5 | 75.5 | 67.8 | 29.8 |  |  |  |  |  |  |  |  |  | 
CCCCCCCCCCCC(=O)[O][Sn]([CH2]CCC)([CH2]CCC)[CH2]CCC | 0.138 | 0.0728 | 0.0883 |  | 0.164 | 0.286 | 0.145 | 0.232 | 0.181 | 0.0419 | 0.0119 | 0.0241 | 0.0548 | 0.0533 | 0.0364 | 0.0312 | 0.0795 | 0.037 | 0.161
Cc1ccc(Sc2cc([N+](=O)[O-])cc(Sc3ccc(C)cc3)c2Sc2ccc(C)cc2)cc1 | > 100 |  | > 100 | > 100 | > 100 | > 100 |  | > 100 | > 100 |  |  |  |  |  |  |  |  |  | 
Cn1c(=O)c2nc3sc4ccccc4c(=N)n3c2n(C)c1=O | > 100 | > 100 | > 100 | > 100 | > 100 | > 100 | > 100 | > 100 | > 100 |  |  |  |  |  |  |  |  |  | 
Fc1cccc(C2SCc3nc4ccccc4n32)c1 (configuration not stated) | > 100 | 55.7 |  | > 100 | 79.3 | > 100 | > 100 |  | 69.1 |  |  |  |  |  |  |  |  |  | 
CC(=O)NC1C(OCc2ccccc2)OC(COC(=O)CCCCCCCCCCNC(=O)CCNc2ccc([N+](=O)[O-])c3[nH]c4ccc(O)cc4c(=O)c23)C(O)C1OC(C)C(=O)N[C@H](C(=O)N[C@H](CCC(=O)O)C(N)=O)C(C)C (some centres not stated) |  | 88.4 | > 100 | > 100 | > 100 | > 100 | > 100 | > 100 | > 100 |  |  |  |  |  |  |  |  |  | 
NCCCSCC(=O)O | > 100 | > 100 |  | > 100 | > 100 | > 100 | > 100 |  | > 100 |  |  |  |  |  |  |  |  |  | 
OC(c1cc2c(Cl)cc(Cl)cc2c2cc(C(F)(F)F)ccc12)C1CCCCN1 (configuration not stated) | 3.64 | 2.57 | 2.9 |  | 3.15 |  | 3.43 | 3.47 | 3.7 | 1.76 | 1.12 | 1.46 | 1.58 | 1.92 |  | 1.66 | 1.72 |  | 
CC(=O)O[C@H]1CC[C@@]2(C)[C@@H](CC[C@@H]3[C@@H]2CC(=O)[C@@]2(C)[C@H]3C[C@@H]3CC(C)=CC(=O)[C@@H]32)C1 | > 100 |  | > 100 | > 100 | > 100 | > 100 | > 100 | > 100 | > 100 |  |  |  |  |  |  |  |  |  | > 100
O=CN/C=C\c1cc(O)ccc1O | 25.6 | 28 | > 100 | 32.9 | > 100 | > 100 | > 56.1 | 60.2 | 19.2 |  |  |  |  |  |  |  |  |  | 
CC(=O)Oc1cc(OC(C)=O)c(OC(C)=O)c2c1CC1C(=O)C3(CCc4ccccc43)C(=O)C1C2 (configuration not stated) | 42.7 | > 100 |  | 37.6 |  | 28.1 | 40.2 | 50.8 |  |  |  |  |  |  |  |  |  |  | 
O=c1cc(/C=C/c2ccccc2)c2ccc(O/C(=C\c3ccccc3)c3nc4ccccc4c(=O)o3)cc2o1 | > 100 | 86.1 | > 100 | > 100 | > 100 | > 100 | 28.7 | 84.7 | 98.4 |  |  |  |  |  |  |  |  |  | 
CC(NC(=O)C1(N)CCCC1)C(=O)O (configuration not stated) | > 100 |  | > 100 | > 100 | > 100 | > 100 | > 100 | > 100 | > 100 |  |  |  |  |  |  |  |  |  | > 100
Cn1cc(C2=C(c3cn(CCCN/C(N)=N\[N+](=O)[O-])c4ccccc34)C(=O)NC2=O)c2ccccc21 | > 22.1 | 16.2 | 9.6 |  | > 25 | > 22.5 | 15.9 | > 16.6 | 21.8 | 5.63 | 3.89 | 2.85 | 11.4 | 7.12 | 2.95 | 5.13 | 3.89 | 1.15 | > 22.6
COc1cccc(/C=N/[N-]C(N)=O)c1[O-].[Cu+2].c1ccncc1 | 40.8 | 31.5 | 45.5 | 65.5 | 45.1 | 58.5 | 45.8 | 52.1 | > 100 |  |  |  |  |  |  |  |  |  | 
O=C1OC(/C=C/c2ccccc2)C(=O)C1=O (configuration not stated) | > 100 | > 100 | > 100 | > 100 | > 100 | > 100 | > 100 | > 100 | > 100 |  |  |  |  |  |  |  |  |  | 
Cc1nc(N(C)C)nc(-c2cccc(-c3ccn(CCN(C)C)n3)c2)c1C | > 20 | > 20 | > 20 |  | > 20 | > 20 | > 20 | > 20 | > 20 | > 20 | 4.71 | 0.628 | > 20 | > 20 | > 20 | > 20 | > 20 | > 20 | > 20
CCC1(O)CC(c2ccccc2)N(C)C(c2ccccc2)C1 (configuration not stated) | > 100 | > 100 | > 100 | > 100 | > 100 | > 100 | > 100 | > 100 | > 100 |  |  |  |  |  |  |  |  |  | 
C=C1[C@@H]2CCC(C)(C)[C@H]1CCC(=O)[C@@H]2C(=O)OC | > 100 |  | > 100 | > 100 |  | > 100 | > 100 | > 100 | > 100 |  |  |  |  |  |  |  |  |  | 
